Results reported in patent US7727965B2, “C-glycosylisoflavones having alkylaminoalkoxyl substituent, preparation and use of the same” (Hainan Yangpu New & Special Medicine Co., Ltd., priority 2003, dated 2010).

Assays:
Kunming mice = experiment: Normal pressure hypoxia-resistance test in mice; type: in vivo; settings: 60 mg/Kg intraperitoneal, 0.5 hours before sealing in 250 ml bottles, examples tested as hydrochloride salts
Experimental: This test was carried out by a common method familiar to those skilled in the art. 32 Kunming mice (16 males vs. 16 females, body weights ranging from 18 to 20 g) were randomly divided into a control group and a administration group (each group having 16 animals), wherein the dosage was 60 mg/Kg mouse and 0.2 ml for each animal. After 0.5 hours of the intraperitoneal injection of test solutions, the mice were placed and sealed in 250 ml wide-mouthed bottles with ground stoppers. The times of death were recorded. Statistical analysis was conducted separately with respect to the blank control group and puerarin group, and P values were calculated.

[1] = cited from earlier work
[2] = cited from earlier work; remark: listed apart in the source
[3] = 568 patients administered with puerarin; cited from earlier work

Row | SMILES | Time to death (Kunming mice) [min] | further results
1 | CCN1CCN(CCCCOc2ccc(-c3coc4c([C@@H]5O[C@H](CO)[C@@H](O)[C@H](O)[C@H]5O)c(O)ccc4c3=O)cc2)CC1 [Example 18, 4′-(4-N-ethylpiperazinylbutoxy)-7-hydroxy-8-β-D-(1-deoxyglucosyl)-isoflavone] | 75.9 ± 6 | 
2 | CN1CCN(CCCCOc2ccc(-c3coc4c([C@@H]5O[C@H](CO)[C@@H](O)[C@H](O)[C@H]5O)c(O)ccc4c3=O)cc2)CC1 [Example 17, 4′-(4-N-methylpiperazinylbutoxy)-7-hydroxy-8-β-D-(1-deoxyglucosyl)-isoflavone] | 59.8 ± 7 | 
3 | O=c1c(-c2ccc(O)cc2)coc2c([C@@H]3O[C@H](CO)[C@@H](O)[C@H](O)[C@H]3O)c(O)ccc12 [puerarin, 4′,7-dihydroxy-8-β-D-C-glycosylisoflavone] | 48.3 ± 5 | solubility of puerarin in 4.3% PVP aqueous solution ([1]; 4.3% PVP aqueous solution): 1.332 g/100 ml; stability in an aqueous solution ([1]; relatively high pH value): poor stability; solubility of puerarin in water ([1]; water): 0.462 g/100 ml; oral bioavailability [2]: about 30%; total incidence rate of febrile [3]: 5.81%
4 | CCCN(CCC)CCCOc1ccc(-c2coc3c([C@@H]4O[C@H](CO)[C@@H](O)[C@H](O)[C@H]4O)c(O)ccc3c2=O)cc1 [Example 7, 4′-[3-N-di(n-propyl)aminopropoxy]-7-hydroxy-8-β-D-(1-deoxyglucosyl)-isoflavone] | 69.8 ± 5 | 
5 | O=c1c(-c2ccc(OCCCN3CCOCC3)cc2)coc2c([C@@H]3O[C@H](CO)[C@@H](O)[C@H](O)[C@H]3O)c(O)ccc12 [Example 4, 4′-(3-N-morpholinylpropoxy)-7-hydroxy-8-β-D-(1-deoxyglucosyl)isoflavone] | 75.3 ± 7 | 
6 | CCN(CC)CCCOc1ccc(-c2coc3c([C@@H]4O[C@H](CO)[C@@H](O)[C@H](O)[C@H]4O)c(O)ccc3c2=O)cc1 [Example 6, 4′-(3-N-diethylaminopropoxy)-7-hydroxy-8-β-D-(1-deoxyglucosyl)-isoflavone] | 73.5 ± 9 | 
7 | CCN(CC)CCCCOc1ccc(-c2coc3c([C@@H]4O[C@H](CO)[C@@H](O)[C@H](O)[C@H]4O)c(O)ccc3c2=O)cc1 [Example 14, 4′-(4-N-diethylaminobutoxy)-7-hydroxy-8-β-D-(1-deoxyglucosyl)isoflavone] | 79.1 ± 8 | 
